The text below walks through data of US8637556B2, “Linked Myc-max small molecule inhibitors” (University of Pittsburgh—Of the Commonwealth System of …, priority 2009, dated 2014).

Like-named read-outs stand apart in the source and are kept apart here.

Assay [1] concerns the target T1, c-Myc353-437 (monomeric c-Myc bHLH-ZIP) (Homo sapiens, UniProt P01106).
T1 construct: recombinant monomeric c Myc bHLH-ZIP (amino acids 353-437); 6xHis with TEV site (N, cleaved yes); made in house; host or cells: E. coli BL21DE3(pLysS)
Kind of assay: Fluorescence polarization titration, c-Myc bHLH-ZIP binding. Conditions: for Kd: Table 1; for c-Myc binding affinity (in words): FP. The source says:
A c-Myc353-437 full-length bHLH-ZIP domain and its truncated version c-Myc390-439 were produced from the c-Myc/pET SKB3 construct, kindly supplied by Dr. S. K. Nair (University of Illinois, Urbana-Champaign), by insertion into the pET151D vector, encoding an N-terminal hexahistidine (6× His), separated by a TEV protease digestion site, with the TOPO® ligation system, and over-expressed in E. coli BL21DE3(pLysS). The 6× His tagged human Max isoform p21, with low homodimerization affinity^70, cloned into the pQE10 vector (Qiagen, Inc.), was over-expressed in E. coli M15(pRep4). Bacterial cultures were grown at 37° C. in LB medium to OD600≈0.8, then induced with 0.5 mM IPTG for 5 hours. Proteins were purified by Ni-agarose chromatography with a pH gradient elution. The 6× His tag of c-MYC353-437 and c-Myc390-439 was cleaved using TEV protease (the TEV protease was expressed in a pET24 vector [courtesy of S. K. Nair] and purified by Ni-agarose chromatography under native conditions). All the proteins were further purified by HPLC and lyophilized. Protein concentrations were determined by measurement of OD280. The synthetic peptide c-Myc363-381 is described in Follis, A. V., Hammoudeh, D. I., Wang, H., Prochownik, E & Metallo, S. J. Structural rationale for the coupled binding and unfolding of the c-Myc oncoprotein by small molecules. Chemistry & Biology 15, 1149-1155 (2008).
Samples were analyzed in a Photon Technology International QuantaMaster fluorimeter (Birmingham, N.J.) equipped with polymer sheet polarizers. Titration experiments were performed upon serial dilution of 1:1 equimolar solution of inhibitor and either c-Myc353-437, c-Myc390-439 or c-Myc363-381 in a 1×PBS buffer (137 mM NaCl, 2.7 mM KCl, 4.3 mM Na2HPO4, 1.4 mM KH2PO4, pH=7.4), 5% DMSO, over concentrations ranging between 200 μM and 1.5 nM. Excitation and emission wavelengths were independently determined for each inhibitor. Reported data represent the average of at least three independent experiments. Data were fit to a quadratic equation derived from the thermodynamic expression of binding equilibrium:
[formula] where [C]0 represents the total concentration of inhibitor and of c-Myc peptide. The value of KD was determined from the experimental polarization data by fitting to Eq. 2 using KaleidaGraph (Synergy Software, Reading, Pa.) where pol0 is the polarization in the absence of binding and Δpol is the total change in polarization (Park, S. H. & Raines, R. T. Fluorescence polarization assay to quantify protein-protein interactions. Methods in Molecular Biology 261, 161-6 (2004)).
[formula] Due to the very tight binding of some of the tested compounds, it was impossible to perform a full binding titration with an acceptable fluorescence intensity, therefore the polo parameter was experimentally determined from samples of each compound in the absence of c-Myc353-437 at a concentration of 25 μM. Binding specificity experiments were performed by monitoring the FP of 10 μM inhibitors solutions in the above-described buffer in the presence of equimolar p21 Max. […] Circular Dichroism.
Also in this case the c-Myc binding affinity was little affected by the introduction of the linker chain (Table 1, FIG. 11).
We then measured the affinity of the synthesized bivalent inhibitors, by monitoring the FP of the compounds nitrobenzofurazan moiety. […] The estimated free energy of binding of the bivalent compounds was roughly proportional to the sum of those of their monovalent components. In the thermodynamic analysis of multivalent binding a ΔG^s term is used to relate the free energy of binding of a multivalent compound to the sum of those of its monovalent components. This term implies the diverse energy contributions resulting from the linking of independent binding components. The ΔG^s term generally constitutes a negative contribution to the binding affinity of distinct binding components connected by a flexible linker to a given target.

Assay [2] concerns HL60 promyelocytic leukemia cells. Kind of assay: HL60 cell growth inhibition (MTT assay). It is filed as cell-based. As to conditions: Homo sapiens, HL-60; Table 3; MTT, third day; read-out: Growth inhibition HL60. The protocol:
(§1) These assays were performed as previously described using HL60 promyelocytic leukemia cells and Daudi Burkitt lymphoma cells, each of which expresses high levels of endogenous c-Myc (Wang, H. et al. Mol. Cancer Ther. 6, 2399-408 (2007)). As controls for non-specific effects of bivalent compounds, we utilized a c-Myc nulllizygous strain of rat fibroblasts (Mateyak, M. K., et al. Cell Growth & Differentiation 8, 1039-48 (1997)) expressing the c-Myc target genes MT-MC1 and HMGAIb, each of which restores a normal growth rate as well as the TGR1 fibroblast line from which the nullizygous line was derived (Wang, H. et al. Mol. Cancer Ther. 6, 2399-408 (2007); Mateyak, M. K., et al. Cell Growth & Differentiation 8, 1039-48 (1997); and Rothermund, K. et al. Cancer Research 65, 2097-107 (2005)). […] Cell quantification was performed on triplicate wells over the ensuing 4-5 days without changing the medium by measuring the absorbance at 490 nm using the MTT assay (Mosmann, T. Journal of Immunological Methods 65, 55-63 (1983)). IC50 values were estimated from linear regression of the inhibition data at the third day of each experiment.
(§2) We evaluated the efficacy of the linked compounds 11, 12, 13, 16, 17, 18 in inhibiting the c-Myc-Max interaction by measuring the binding of a target DNA sequence (E-Box) by the protein heterodimers in an electrophoretic mobility shift assay (EMSA). […] A fluorinated substitute of 14, 24, the choice of which was based upon the results of structure activity relationship studies described in Wang, H. et al. (Mol. Cancer Ther. 6, 2399-408 (2007)), was employed at this purpose (Muller, K., et al. Science 317, 1881-6 (2007) and Kirk, K. L. Current Topics in Medicinal Chemistry 6, 1447-56 (2006)).

In assay [3] the test system is Daudi Burkitt lymphoma cells. Kind of assay: Burkitt's lymphoma cell growth inhibition (MTT assay). It is filed as cell-based. Conditions: Homo sapiens, Table 3, MTT, third day, read-out: Growth inhibition BL. The protocol: as §1, §2
Where [4] appears, read: FP titration with c-Myc353-437, 1xPBS pH 7.4, 5% DMSO, read-out: KD (c-Myc affinity, monovalent).

T1 sequence (P01106 368-452): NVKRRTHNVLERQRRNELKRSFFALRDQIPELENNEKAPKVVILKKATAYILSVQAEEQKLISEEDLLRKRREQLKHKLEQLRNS

As for `O=C(O)c1ccccc1Nc1ccc([N+](=O)[O-])c2nonc12` [compound 5], in assay [1] (setting [4]), the Kd was 13 ± 5 µM.
Take `O=C(O)c1cccc(Nc2ccc([N+](=O)[O-])c3nonc23)c1` [compound 6]: the Kd in assay [1] (setting [4]) stood at 16 ± 6 µM.
As to `O=C(O)c1ccc(Nc2ccc([N+](=O)[O-])c3nonc23)cc1` [compound 7], the Kd in assay [1] (setting [4]) was found to be 3 ± 1 µM. The “c-Myc binding, times tighter than 5 and 6” value in assay [1] (relative to compounds 5 and 6) was ~5 times.
In the case of `CCc1ccc(C=C2SC(=S)NC2=O)cc1` [compound 2, (Z,E)-5-(4-ethyl-benzylidene)-2-thioxo-thiazolidin-4-one, reference compound], the IC50 in assay [2] is 50 µM; in assay [3] it was 40 µM.
As for `O=[N+]([O-])c1ccc(Nc2ccccc2)c2nonc12` [compound 3], the “c-Myc binding affinity (in words)” value in assay [1] was “minor loss of c-Myc affinity”. Further, the Kd in assay [1] (setting [4]) is 7 ± 1 µM.
In the case of `CCc1ccc(C=C2SC(=O)N(CCCCNC(=O)c3ccc(Nc4ccc([N+](=O)[O-])c5nonc45)cc3)C2=O)cc1` [compound 21], in assay [1] (FP of nitrobenzofurazan moiety, c-Myc353-437, read-out: KD (c-Myc affinity, bivalent)), the Kd came to 0.004 ± 0.001 µM. Also, the IC50 fell in the range of 7 to 9 µM in assay [2] and 14 to 16 µM in assay [3].
In the case of `CN(C)c1ccc([N+](=O)[O-])c2nonc12` [compound 4], the “c-Myc binding affinity (in words)” value in assay [1] is listed as “complete loss of binding affinity”. Moreover, the Kd in assay [1] (setting [4]) was > 200 µM.
With `CC(=O)NCCCCCNC(=O)c1ccc(C=C2SC(=S)NC2=O)cc1` [compound 10], the Kd in assay [1] (setting [4]) amounted to 90 ± 40 µM.
